These results are taken from patent publication US9540333B2, “Alkyl amide-substituted pyrimidine compounds useful in the modulation of IL-12, IL-23 and/or IFNα” (Bristol-Myers Squibb Company, priority 2012, dated 2017).

For test [1], the system named is IL-23 stimulated Kit225 T cells with STAT-dependent luciferase reporter. The test is described as follows: Kit225 T cell assay, IL-23 stimulated STAT-dependent luciferase reporter. In kind it is cell-based. To be noted: 20 ng/mL human recombinant IL-23, 5-6 hours, read-out: IL-23 Kit225 Reporter, LE (IC50). The procedure:
(§1) Kit225 T cells with a stably-integrated STAT-dependent luciferase reporter were plated in RPMI (Gibco) containing 10% heat-inactivated FBS (Gibco) and 100 U/mL PenStrep (Gibco). The cells were then stimulated with either 20 ng/mL human recombinant IL-23 or 200 U/mL human recombinant IFNα (PBL InterferonSource) for 5-6 hours. Luciferase expression was measured using the STEADY-GLO® Luciferase Assay System (Promega) according to the manufacturer's instructions. Inhibition data were calculated by comparison to no inhibitor control wells for 0% inhibition and non-stimulated control wells for 100% inhibition. Dose response curves were generated to determine the concentration required to inhibit 50% of cellular response (IC50) as derived by non-linear regression analysis.
On the technique in general: In a reporter assay the amount or activity of a reporter protein is the signal.

For test [2], the target named is T1, His-tagged protein corresponding to amino acids 575-869 of human Tyk2 (Homo sapiens, UniProt P29597).
T1 construct: His-tagged protein corresponding to amino acids 575-869 of human Tyk2; made in house
T1 sequence (P29597 575-869): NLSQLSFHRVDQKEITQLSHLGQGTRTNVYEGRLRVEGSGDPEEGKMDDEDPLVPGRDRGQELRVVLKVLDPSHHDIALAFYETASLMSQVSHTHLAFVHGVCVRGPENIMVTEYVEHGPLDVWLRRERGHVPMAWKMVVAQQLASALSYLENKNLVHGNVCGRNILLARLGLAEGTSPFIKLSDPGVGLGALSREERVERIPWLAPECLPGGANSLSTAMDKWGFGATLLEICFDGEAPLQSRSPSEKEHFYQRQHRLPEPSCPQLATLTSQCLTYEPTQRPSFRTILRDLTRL
Nature of the test: Probe displacement assay (scintillation proximity, radiolabeled probe). In kind it is binding. To be noted: 2.5 nM Tyk2 (575-869), 40 nM tritiated probe, 30 minutes at room temperature. The procedure:
The probe displacement assay is conducted as follows: In a […], test compounds along with recombinantly expressed His-tagged protein corresponding to amino acids 575-869 of human Tyk2 (sequence shown below) at 2.5 nM, 40 nM ((R)—N-(1-(3-(8-methyl-5-(methylamino)-8H-imidazo[4,5-d]thiazolo[5,4-b]pyridin-2-yl)phenyl)ethyl)-2-([^3H]methylsulfonyl)benzamide) (preparation described below) and 80 μg/mL Copper His-Tag scintillation proximity assay beads (Perkin Elmer, Catalog #RPNQ0095) in 50 mM HEPES, pH 7.5, containing 100 μg/mL bovine serum albumin and 5% DMSO were incubated for 30 minutes at room temperature. The amount of radiolabeled probe (preparation described below) bound to Tyk2 was then quantified by scintillation counting, and the inhibition by the test compound calculated by comparison to wells either with no inhibitor (0% inhibition) or without Tyk2 (100% inhibition). The IC50 value is defined as the concentration of test compound required to inhibit radiolabeled probe binding by 50%.
Protein Sequence of recombinant Hig-tagged Tyk2 (575-869):
The preparation of radiolabeled probe, (R)—N-(1-(3-(8-methyl-5-(methylamino)-8H-imidazo[4,5-d]thiazolo[5,4-b]pyridin-2-yl)phenyl)ethyl)-2-([^3H]methylsulfonyl)benzamide, was performed as described below.
A general note: SPA uses beads or plates that emit light when radiolabelled molecules are held near them.

Test [3] deals with IFNα stimulated Kit225 T cells with STAT-dependent luciferase reporter. Nature of the test: Kit225 T cell assay, IFNα stimulated STAT-dependent luciferase reporter. Type of test: cell-based. To be noted: 200 U/mL human recombinant IFNα, 5-6 hours, read-out: IFNα Kit225 Reporter, LE (IC50). The procedure:
as §1

As a reminder, the pIC50 is −log10 of the IC50, conventionally taken in molar units. Usually pEC50 stands for the negative decadic logarithm of the EC50, by convention in mol/L. Low values mean a high EC50, high ones a low EC50.

Each structure is given as a SMILES string. pEC50, pIC50: −log10 of the molar value.

On to `CNC(=O)c1cnc(NCC2CC2)nc1Nc1ccccc1S(C)(=O)=O` [Example 1], for which the pIC50 in test [1] was 5.47; in test [3], 5.80. Moreover, the pEC50 in test [2] is 6.49.
In the same order, the values of `CNC(=O)c1cnc(Nc2ccc(F)cc2)nc1Nc1ccccc1C(N)=O` [Example 2] are 5.58, 5.55 and 7.22.
Consider `CNC(=O)c1cnc(Nc2ccc(F)cc2)nc1Nc1ccccc1` [Example 3], for which the pIC50 in test [1] is 5.45; in test [3], 4.90. The pEC50 in test [2] is 6.08.
In the same order, the values of `CNC(=O)c1cnc(Nc2ccccc2)nc1Nc1ccccc1` [Example 4] are 5.07, 5.02 and 6.28.
For `CNC(=O)c1cnc(Nc2cccc(-c3ccccc3)c2)nc1Nc1ccccc1C(N)=O` [Example 5], the pIC50 was 5.33 in test [1] and 5.52 in test [3]. Further, in test [2], the pEC50 was 7.30.
Consider `CNC(=O)c1cnc(Nc2ccc(F)cc2)nc1Nc1cccc(C(N)=O)c1` [Example 6], for which the pIC50 in test [1] was 5.45; in test [3] it was 4.90. The compound further gave a pEC50 in test [2] of 5.87.
For `CNC(=O)c1cnc(NC2CCC2)nc1Nc1ccccc1C(N)=O` [Example 7], the pIC50 in test [1] is 5.01; in test [3], 4.90. In test [2], this compound showed a pEC50 of 6.96.
On to `CNC(=O)c1cnc(NC2CCCC2)nc1Nc1ccccc1C(N)=O` [Example 8], for which the pIC50 in test [1] was 5.08; in test [3], 4.90. Further, in test [2], the pEC50 is 6.92.
With `CNC(=O)c1cnc(Nc2ccc(-c3ccccc3)cc2)nc1Nc1ccccc1C(N)=O` [Example 10], the pIC50 is 5.88 in test [1] and 5.84 in test [3]. The compound further showed a pEC50 in test [2] of 7.15.
In the case of `CNC(=O)c1cnc(Nc2ccc(F)cc2)nc1Nc1ccccc1S(C)(=O)=O` [Example 11], the pIC50 was 7.22 in test [1] and 6.23 in test [3]. In test [2], this compound gave a pEC50 of 7.15.
Turning to `CNC(=O)c1cnc(Nc2ccccc2)nc1Nc1ccccc1S(C)(=O)=O` [Example 12], the pIC50 in test [1] was 6.70; in test [3], 6.80. Besides, the pEC50 in test [2] is 7.52.
On the same counts, the results for `CNC(=O)c1cnc(Nc2ccc(F)c(C)c2)nc1Nc1ccccc1S(C)(=O)=O` [Example 13] are 6.70, 6.51 and 7.70.
With `CNC(=O)c1cnc(Nc2ccc(F)c(F)c2)nc1Nc1ccccc1S(C)(=O)=O` [Example 14], the pIC50 in test [1] is 6.55; in test [3], 6.34. Besides, the pEC50 in test [2] was 8.07.
